Experimental data as given in article PMC4623978, “Modulation of Closed−State Inactivation in Kv2.1/Kv6.4 Heterotetramers as Mechanism for 4−AP Induced Potentiation” (PLoS ONE, 2015).

Columns and labels:
[1] = molecular target: T1, Kv2.1/Kv5.1 heterotetramer (Homo sapiens, UniProt Q14721+Q9H3M0); experiment: whole-cell patch clamp, current block; assay type: cell-based; conditions: pH 7.35 outside, 20-23 °C
T1 construct: gene KCNB1; co-transfected in mouse Ltk- cells, KvS:Kv2.1 10:1 cDNA
T1 sequence (Q14721 1-858): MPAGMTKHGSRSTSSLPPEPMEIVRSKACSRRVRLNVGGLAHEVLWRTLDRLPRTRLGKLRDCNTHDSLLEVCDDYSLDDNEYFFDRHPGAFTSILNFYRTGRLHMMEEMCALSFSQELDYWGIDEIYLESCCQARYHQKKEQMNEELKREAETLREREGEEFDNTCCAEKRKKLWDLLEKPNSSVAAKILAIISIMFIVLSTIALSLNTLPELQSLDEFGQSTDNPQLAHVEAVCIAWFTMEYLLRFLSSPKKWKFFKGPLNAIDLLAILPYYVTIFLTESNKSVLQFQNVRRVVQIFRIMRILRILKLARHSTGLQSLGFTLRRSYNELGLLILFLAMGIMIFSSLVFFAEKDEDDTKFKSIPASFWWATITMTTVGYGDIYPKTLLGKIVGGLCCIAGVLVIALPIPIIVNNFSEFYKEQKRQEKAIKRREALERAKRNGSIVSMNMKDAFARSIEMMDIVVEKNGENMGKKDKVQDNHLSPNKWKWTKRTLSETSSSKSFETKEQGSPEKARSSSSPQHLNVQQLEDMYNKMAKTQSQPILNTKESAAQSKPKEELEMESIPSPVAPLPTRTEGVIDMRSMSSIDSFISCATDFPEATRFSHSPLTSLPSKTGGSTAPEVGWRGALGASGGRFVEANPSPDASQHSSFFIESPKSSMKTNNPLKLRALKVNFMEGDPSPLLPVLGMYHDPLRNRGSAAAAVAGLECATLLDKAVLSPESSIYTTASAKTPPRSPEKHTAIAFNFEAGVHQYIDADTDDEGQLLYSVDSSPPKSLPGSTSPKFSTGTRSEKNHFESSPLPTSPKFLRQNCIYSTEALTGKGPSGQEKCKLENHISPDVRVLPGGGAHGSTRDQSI
T1 sequence (Q9H3M0 1-494): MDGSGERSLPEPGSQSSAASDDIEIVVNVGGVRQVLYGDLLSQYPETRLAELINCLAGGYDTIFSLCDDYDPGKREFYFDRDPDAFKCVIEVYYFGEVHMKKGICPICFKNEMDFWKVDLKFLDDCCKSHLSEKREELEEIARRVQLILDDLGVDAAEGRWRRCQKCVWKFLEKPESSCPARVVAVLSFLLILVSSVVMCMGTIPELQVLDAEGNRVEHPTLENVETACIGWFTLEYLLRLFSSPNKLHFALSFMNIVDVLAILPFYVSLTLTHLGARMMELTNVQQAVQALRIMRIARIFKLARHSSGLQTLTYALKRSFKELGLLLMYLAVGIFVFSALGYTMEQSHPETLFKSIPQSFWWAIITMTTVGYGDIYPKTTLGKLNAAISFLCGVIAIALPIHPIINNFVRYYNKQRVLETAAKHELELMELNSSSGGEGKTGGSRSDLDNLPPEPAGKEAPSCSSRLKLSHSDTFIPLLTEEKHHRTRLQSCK

Kv2.1/Kv6.4_S6c_Kv9.3 = tested on: T2, Kv2.1/Kv6.4_S6c_Kv9.3; experiment: whole-cell patch clamp, current block; assay type: cell-based, Homo sapiens (Kv2.1, Kv6.4); Mus musculus (Kv9.3 S6c); conditions: pH 7.35 outside, 20-23 °C
T2 construct: gene KCNB1

Kv2.1 homotetramer = molecular target: T3, Kv2.1 homotetramer (Homo sapiens, UniProt Q14721); experiment: whole-cell patch clamp, Hill fit of current at +[…] mV; assay type: cell-based
T3 construct: gene KCNB1; full-length in eGFP-N1 vector, transiently expressed in mouse Ltk- cells; homotetramer
T3 sequence (Q14721 1-858): T1 sequence (Q14721 1-858)

[2] = molecular target: T4, Kv2.1/Kv6.4 heterotetramer (Homo sapiens, UniProt Q14721+Q8TDN1); experiment: as above; assay type: cell-based
T4 construct: gene KCNB1; co-transfected in mouse Ltk- cells, KvS:Kv2.1 10:1 cDNA; formerly named Kv6.3
T4 sequence (Q14721 1-858): T1 sequence (Q14721 1-858)
T4 sequence (Q8TDN1 1-519): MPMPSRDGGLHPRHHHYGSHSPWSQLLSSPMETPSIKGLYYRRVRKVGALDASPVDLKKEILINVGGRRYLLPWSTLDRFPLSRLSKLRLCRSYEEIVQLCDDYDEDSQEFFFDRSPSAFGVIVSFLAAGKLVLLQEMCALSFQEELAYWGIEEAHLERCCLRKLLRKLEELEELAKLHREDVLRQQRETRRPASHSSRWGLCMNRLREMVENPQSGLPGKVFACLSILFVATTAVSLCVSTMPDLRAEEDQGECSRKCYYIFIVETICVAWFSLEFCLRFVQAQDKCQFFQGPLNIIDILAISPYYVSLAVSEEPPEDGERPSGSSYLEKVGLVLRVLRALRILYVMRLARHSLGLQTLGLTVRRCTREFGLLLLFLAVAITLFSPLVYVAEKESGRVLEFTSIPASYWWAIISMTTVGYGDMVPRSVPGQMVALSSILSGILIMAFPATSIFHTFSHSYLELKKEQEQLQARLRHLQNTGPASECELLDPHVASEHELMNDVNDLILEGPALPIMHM

Structure (SMILES): Nc1ccncc1 [4-aminopyridine]
- % inhibition at 18 mM [1]: 10 ± 2%
- % inhibition at 18 mM (Kv2.1/Kv6.4_S6c_Kv9.3): 12 ± 3%

Structure (SMILES): O=C(NCC1CCCCN1)c1cc(OCC(F)(F)F)ccc1OCC(F)(F)F (stereo not drawn) [flecainide]
- IC50 (Kv2.1 homotetramer): 7.4 ± 0.8 µM
- IC50 [2]: 2 ± 0.1 µM

Structure (SMILES): C=C[C@H]1C[N@@]2CC[C@H]1C[C@@H]2[C@@H](O)c1ccnc2ccc(OC)cc12 [quinidine]
- IC50 (Kv2.1 homotetramer): 7.2 ± 0.8 µM
- IC50 [2]: 3 ± 0.1 µM
